In patent US4444782A, “2(4-tert.-Butyl-2,6-dichlorophenyl-imino)imidazolidine and use as an anti-hypertension agent” (SmithKline Beckman Corporation, priority 1982, dated 1984):
Structures can show the parent of a compound that is named as a salt. Where two headings read alike, the source gives them in different places.

Columns and labels:
[1] = target: T1, alpha2 receptor (guinea pig atrium) (Cavia porcellus, UniProt Q60474); assay: isolated, superfused guinea pig left atrium (prejunctional alpha2 agonism)
T1 construct: isolated, superfused guinea pig left atrium; from tissue; host or cells: guinea pig left atrium (sympathetic nerve endings)
T1 sequence (Q60474 1-464): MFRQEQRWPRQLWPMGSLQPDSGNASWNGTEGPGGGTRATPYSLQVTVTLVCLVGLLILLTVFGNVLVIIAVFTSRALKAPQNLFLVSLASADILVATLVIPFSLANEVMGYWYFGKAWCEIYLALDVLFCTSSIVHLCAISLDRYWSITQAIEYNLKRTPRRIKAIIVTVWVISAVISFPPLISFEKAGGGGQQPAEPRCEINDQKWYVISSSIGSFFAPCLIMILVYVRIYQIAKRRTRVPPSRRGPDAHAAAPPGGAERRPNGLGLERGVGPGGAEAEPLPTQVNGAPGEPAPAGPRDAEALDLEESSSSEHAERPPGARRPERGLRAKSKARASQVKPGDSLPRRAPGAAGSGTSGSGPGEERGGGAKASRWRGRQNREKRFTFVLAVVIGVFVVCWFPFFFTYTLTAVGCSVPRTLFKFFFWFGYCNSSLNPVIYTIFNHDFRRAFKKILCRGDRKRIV
From the text: The second type of vascular alpha receptor site to be reported is located prejunctionally on sympathetic neurons and called alpha2 sites. The protocol employed for determining this activity is the isolated, superfused guinea pig left atrium described in the cited Hieble publication.

[2] = system: alpha3 (vascular postjunctional alpha2) receptor, dog saphenous vein; conditions: for α2/α3 Selectivity: ratio of ED50 guinea pig atrium to ED50 dog saphenous vein
Procedure: (§1) Another test system to assay for vascular postjunctional alpha2 stimulation utilizes the dog saphenous vein. This activity may be called alpha3 stimulation. The protocol for this test is as follows:
(§2) Mongrel dogs of either sex are anesthetized with sodium pentobarbital (50 mg/kg, i.p.). After the dog is anesthetized, the saphenous vein is located and cleaned of connective tissue, a 2-4 cm. segment is tied at both ends and removed. The venous segment is placed in a dish of cold Krebs solution and additional cleaning is performed to remove as much non-vascular tissue as possible. Ring segments (3-4 mm.) are then cut from the vessel.
(§3) The vessel is mounted in a superfusion chamber as known to the art for the rabbit ear artery except that the insert holding the venous ring has two parallel 0.5 mm tungsten wires separated by 2 mm. The tissue is slipped over these parallel wires and the insert attached to the main block. A third tungsten wire is then inserted through the ring and attached to a force-displacement transducer.
(§4) An initial tension of 4 gm is placed on the tissue, with tension being adjusted until a stable resting tension of 2 gm. is produced. Concentration-effect curves are determined as described in the publication referred to above for the ear artery segment.

[3] = target: T2, alpha3 (vascular postjunctional alpha2) receptor, dog saphenous vein (Canis lupus familiaris, UniProt A0A8I3Q7S8); conditions: for relative potency, alpha3: dog saphenous vein, clonidine versus the compound of this invention
T2 construct: the saphenous vein is located and cleaned of connective tissue; from tissue; host or cells: saphenous vein rings of mongrel dogs
T2 sequence (A0A8I3Q7S8 1-427): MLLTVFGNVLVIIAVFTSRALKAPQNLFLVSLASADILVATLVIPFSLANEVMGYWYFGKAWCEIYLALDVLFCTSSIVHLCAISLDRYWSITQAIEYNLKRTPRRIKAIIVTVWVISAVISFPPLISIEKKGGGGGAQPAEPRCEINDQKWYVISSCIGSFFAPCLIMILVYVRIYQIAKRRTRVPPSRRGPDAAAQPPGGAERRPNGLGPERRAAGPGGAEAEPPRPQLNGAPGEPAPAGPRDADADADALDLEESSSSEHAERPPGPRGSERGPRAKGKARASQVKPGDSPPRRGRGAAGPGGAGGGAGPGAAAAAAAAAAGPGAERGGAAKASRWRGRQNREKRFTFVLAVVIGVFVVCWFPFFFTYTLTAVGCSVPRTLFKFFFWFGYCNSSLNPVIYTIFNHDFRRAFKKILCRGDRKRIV
Procedure: as §1, §2, §3, §4

[4] = target: alpha1 receptor (rabbit ear artery); assay: isolated perfused rabbit ear artery (postjunctional alpha1 agonism); conditions: for EC50: isolated perfused rabbit ear artery, read-out: ED50 Alpha1 Rabbit Ear Artery
From the text: Since the early work on clonidine, at least two types of vascular alpha receptor sites have been identified. A postjunctional, or postsynaptic, alpha1 receptor was initially reported. […] In the alpha test protocol in the isolated perfused rabbit ear artery described by J. P. Hieble et al., Arch.

normotensive rat = assay: reduction of blood pressure in the normotensive rat model; assay type: in vivo; conditions: for ED30: iv, read-out: EC30 for the reduction of blood pressure (hypotensive effect)
Procedure: In the normotensive rat model, the I.V. EC30 for the reduction of blood pressure was 9.8 μg/kg.

[5] = potentiation of hexabarbitol induced sleep time (sedation); assay type: in vivo
[6] = cited literature; cited from earlier work

SMILES: Clc1cccc(Cl)c1NC1=NCCN1 [CLONIDINE HYDROCHLORIDE]
- EC50 [1]: 17 nM
- α2/α3 Selectivity [2]: 1
- EC50 ([3]; dog saphenous vein ring, read-out: ED50 Alpha3 Dog Saphenous Vein): 16 nM
- EC50 [4]: 290 nM

SMILES: CC(C)(C)c1cc(Cl)c(N=C2NCCN2)c(Cl)c1 [COMPOUND I, 2-(4-tert.-butyl-2,6-dichlorophenylimino)imidazolidine]
- ED30 (normotensive rat; Rattus norvegicus): 9.8 µg/kg
- ED50 ([5]; ip, read-out: ED50 for potentiation of hexabarbitol induced sedation): 260 µg/kg
- sedative side effects, in words ([5]; summary statement): devoid of the sedative side effects
- EC50 ([1]; isolated superfused guinea pig left atrium, read-out: ED50 Alpha2 Guinea Pig Atrium): 790 nM
- selectivity for the postsynaptic receptor in vitro (fold) ([2]; post- versus presynaptic receptor, in vitro, Table A): 30
- α2/α3 Selectivity [2]: 30
- EC50 [3]: 26 nM
- relative potency, alpha3 [3]: about equipotent
- EC50 [4]: 30 nM
- agonist potency relative to clonidine, alpha1 ([4]; rabbit ear artery, compared with clonidine): eight times more potent

SMILES: Clc1cccc(Cl)c1N=C1NCCN1 [clonidine, 2-(2,6-dichlorophenylimino)-2-imidazolidine]
- hypotensive potency relative to the compound of this invention (normotensive rat; clonidine compared with the compound of this invention): only slightly more potent
- ED30 (normotensive rat; normotensive rat, I.V.): 2.3 µg/kg
- marked sedation at a dose lower than the compound of this invention (times lower) ([5]; compared with the compound of this invention): ~30
- ED50 ([5]; iv, read-out: ED50 in the hexabarbitol sleep time assay): 9.6 µg/kg
- sedation, in words (literature) [6]: heavy sedation
- activity relative to the compound of this invention, alpha2 (times as active) ([1]; guinea pig left atrium): 46
- specificity between pre- and post-synaptic receptor subtypes, in words ([2]; in vitro, Table A): very little specificity
- α2/α3 Selectivity [2]: 1
- relative potency, alpha3 [3]: about equipotent

SMILES: CCc1ccc(N=C2NCCN2)c(Cl)c1 [2-(2-Chloro-4-ethylphenylimino)-imidazolidine]
- sedation, in words (literature) [6]: very strong sedative or sleep inducer
